Results reported in PubChem BioAssay AID248 (DTP/NCI, 2004).
“And” between values parts separate entries of the source, which are not always exact repeats. Equal values may be shown once. Toxic doses and inconclusive results are not listed. Cut-off read from the data, not from the text of the source: active = T/C of 150% or more; inactive = T/C below 125%.

Tested on: L1210 leukemia ip in BDF1 mice, survival T/C
Assay: NCI In Vivo Anticancer Drug Screen. Data for tumor model L1210 Leukemia (intraperitoneal) in B6D2F1 (BDF1) mice
Details: endpoint: mean survival time, higher = longer survival
Outline: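 Tumor cells were implanted, animals were treated, and survival was followed. The result divides the treated measurement by the vehicle-control measurement.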

[1] = dose: 100.0 mg/kg/injection, schedule: Q01DX009 (ip), vehicle: saline with Tween-80
[2] = dose: 200.0 mg/kg/injection, schedule: Q01DX009 (ip), vehicle: saline with Tween-80
[3] = dose: 400.0 mg/kg/injection, schedule: Q01DX009 (ip), vehicle: saline with Tween-80
[4] = dose: 10.0 mg/kg/injection, schedule: Q04DX003 (ip), vehicle: saline
[5] = dose: 20.0 mg/kg/injection, schedule: Q04DX003 (ip), vehicle: saline
[6] = dose: 100.0 mg/kg/injection, schedule: Q01DX001 (ip), vehicle: saline
[7] = dose: 200.0 mg/kg/injection, schedule: Q01DX001 (ip), vehicle: saline
[8] = dose: 400.0 mg/kg/injection, schedule: Q01DX001 (ip), vehicle: saline
[9] = dose: 100.0 mg/kg/injection, schedule: Q01DX009 (ip), vehicle: Klucel (hydroxypropylcellulose) (HPC)
[10] = dose: 200.0 mg/kg/injection, schedule: Q01DX009 (ip), vehicle: Klucel (hydroxypropylcellulose) (HPC)
[11] = dose: 400.0 mg/kg/injection, schedule: Q01DX009 (ip), vehicle: Klucel (hydroxypropylcellulose) (HPC)
[12] = dose: 100.0 mg/kg/injection, schedule: Q04DX003 (ip), vehicle: Klucel (hydroxypropylcellulose) (HPC)
[13] = dose: 200.0 mg/kg/injection, schedule: Q04DX003 (ip), vehicle: Klucel (hydroxypropylcellulose) (HPC)
[14] = dose: 400.0 mg/kg/injection, schedule: Q04DX003 (ip), vehicle: Klucel (hydroxypropylcellulose) (HPC)
[15] = dose: 100.0 mg/kg/injection, schedule: Q04DX003 (ip), vehicle: saline
[16] = dose: 200.0 mg/kg/injection, schedule: Q04DX003 (ip), vehicle: saline
[17] = dose: 25.0 mg/kg/injection, schedule: Q01DX009 (ip), vehicle: saline with Tween-80
[18] = dose: 25.0 mg/kg/injection, schedule: Q01DX009 (ip), vehicle: saline
[19] = dose: 25.0 mg/kg/injection, schedule: Q04DX003 (ip), vehicle: saline with Tween-80
[20] = dose: 50.0 mg/kg/injection, schedule: Q01DX009 (ip), vehicle: saline
[21] = dose: 100.0 mg/kg/injection, schedule: Q04DX003 (ip), vehicle: saline with Tween-80
[22] = dose: 100.0 mg/kg/injection, schedule: Q01DX009 (ip), vehicle: saline
[23] = dose: 200.0 mg/kg/injection, schedule: Q01DX009 (ip), vehicle: saline
[24] = dose: 400.0 mg/kg/injection, schedule: Q04DX003 (ip), vehicle: saline
[25] = dose: 50.0 mg/kg/injection, schedule: Q01DX009 (ip), vehicle: saline with Tween-80

Measured: T/C

C=C[CH2][Sn]([Br])([Br])[CH2]C=C
inactive: [1] 106 % of control | [2] 95 % of control | [3] 95 % of control

O=C(CCl)c1cnc2ccccc2n1
inactive: dose: 5.0 mg/kg/injection, schedule: Q01DX009 (ip), vehicle: saline 102 % of control | dose: 5.0 mg/kg/injection, schedule: Q04DX003 (ip), vehicle: saline 103 % of control | dose: 10.0 mg/kg/injection, schedule: Q01DX009 (ip), vehicle: saline 98 % of control | [4] 100 % of control | dose: 20.0 mg/kg/injection, schedule: Q01DX009 (ip), vehicle: saline 93 % of control | [5] 100 % of control

CC1CCc2cc3c(cc2C1=O)sc1ccccc13 (stereo not given)
inactive: [6] 108 % of control | [7] 105 % of control | [8] 89 % of control

CC(C)(C)C(=O)Nc1ccc(F)cc1
inactive: [9] 110 % of control | [10] 94 % of control | [11] 116 % of control

O=C(c1ccccc1)C1C(c2ccccc2)N1C(=O)c1ccccc1 (stereo not given)
inactive: [9] 94 % of control | [12] 102 % of control | [10] 101 % of control | [13] 90 % of control | [11] 89 % of control | [14] 90 % of control

CC(=O)OCC12CCC(O1)C1C(=O)OC(=O)C12 (stereo not given)
inactive: [9] 91 % of control | [12] 97 % of control | [10] 88 % of control | [13] 98 % of control | [11] 93 % of control | [14] 90 % of control

c1ccc(C[As+](c2ccccc2)(c2ccccc2)c2ccccc2)cc1
inactive: dose: 5.0 mg/kg/injection, schedule: Q01DX001 (ip), vehicle: saline 101 % of control | dose: 6.25 mg/kg/injection, schedule: Q04DX002 (ip), vehicle: saline with Tween-80 97 % of control | dose: 10.0 mg/kg/injection, schedule: Q01DX001 (ip), vehicle: saline 90 % of control | dose: 12.5 mg/kg/injection, schedule: Q04DX002 (ip), vehicle: saline with Tween-80 86 % of control | dose: 20.0 mg/kg/injection, schedule: Q01DX001 (ip), vehicle: saline 93 % of control | dose: 25.0 mg/kg/injection, schedule: Q04DX002 (ip), vehicle: saline with Tween-80 101 % of control | dose: 40.0 mg/kg/injection, schedule: Q01DX001 (ip), vehicle: saline 109 % of control

COC(=O)[C@@]12OC[C@]34[C@H]([C@@H](O)[C@@H]1O)[C@@]1(C)[C@H](O)C(=O)C=C(C)[C@@H]1C[C@H]3OC(=O)C(OC(C)=O)[C@@H]24 (stereo not given in full)
inactive: dose: 125.0 micrograms/kg/injection, schedule: Q01DX009 (ip), vehicle: saline + alcohol 104 % of control | dose: 250.0 micrograms/kg/injection, schedule: Q01DX009 (ip), vehicle: saline + alcohol 105 % of control | dose: 500.0 micrograms/kg/injection, schedule: Q01DX009 (ip), vehicle: saline + alcohol 96 % of control | dose: 1000.0 micrograms/kg/injection, schedule: Q01DX009 (ip), vehicle: saline + alcohol 102 % of control | dose: 2000.0 micrograms/kg/injection, schedule: Q01DX009 (ip), vehicle: saline + alcohol 104 % of control

O=C(N1CCOCC1)C1(c2ccccc2)CCNCC1
inactive: [15] 98 % of control | [16] 93 % of control

c1ccc(C[n+]2ccc3ccccc3c2)cc1
inactive: dose: 6.25 mg/kg/injection, schedule: Q01DX009 (ip), vehicle: saline with Tween-80 95 % of control | dose: 6.25 mg/kg/injection, schedule: Q04DX003 (ip), vehicle: saline with Tween-80 107 % of control | [4] 105 % of control | dose: 12.5 mg/kg/injection, schedule: Q01DX009 (ip), vehicle: saline with Tween-80 103 % of control | dose: 12.5 mg/kg/injection, schedule: Q01DX009 (ip), vehicle: saline 112 % of control | dose: 12.5 mg/kg/injection, schedule: Q04DX003 (ip), vehicle: saline with Tween-80 98 % of control | [5] 92 % of control | [17] 111 % of control | [18] 107 % of control | [19] 91 % of control | dose: 40.0 mg/kg/injection, schedule: Q04DX003 (ip), vehicle: saline 94 % of control | [20] 104 % of control | dose: 50.0 mg/kg/injection, schedule: Q04DX003 (ip), vehicle: saline 95 % of control

CCCCCCCCCCCCNc1ccccn1
inactive: [21] 88 % of control | dose: 200.0 mg/kg/injection, schedule: Q04DX003 (ip), vehicle: saline with Tween-80 94 % of control | dose: 400.0 mg/kg/injection, schedule: Q04DX003 (ip), vehicle: saline with Tween-80 96 % of control

O=S(=O)(Nc1nccs1)c1ccc(N=Nc2ccc(O)c3ncccc23)cc1
inactive: [7] 102 % of control | [8] 101 % of control

C/C=C\C#N
inactive: [22] 106 % of control | [15] 103 % of control | [23] 108 % of control | [16] 113 % of control

N#CCCN1CCCC(=O)NC1=O
inactive: [1] 103 % of control | [15] 105 % of control | [2] 94 % of control | [16] 103 % of control | [3] 97 % of control | [24] 100 % of control

CCN(CC)CCCOC(=O)c1ccccc1
inactive: [20] 96 % of control | [22] 100 % of control | [23] 100 % of control

Cc1ccc(-n2nnnc2N)c(C)c1
inactive: [15] 94 % of control | [16] 91 % of control | [24] 94 % of control

O=C(CNC(=O)c1ccccc1)N/N=C/c1cccc([N+](=O)[O-])c1
inactive: [17] 95 % of control | [25] 90 % of control | [1] 88 % of control

CSCCC(NC(C)=O)C(=O)NNC(C)C (stereo not given)
inactive: [18] 101 % of control | [20] 92 % of control | [22] 92 % of control | [23] 95 % of control | dose: 400.0 mg/kg/injection, schedule: Q01DX009 (ip), vehicle: saline 93 % of control

CCOC(=O)C(CC1CCCCC1)(NC(C)=O)C(=O)OCC
inactive: dose: 75.0 mg/kg/injection, schedule: Q04DX003 (ip), vehicle: saline 96 % of control | dose: 150.0 mg/kg/injection, schedule: Q04DX003 (ip), vehicle: saline 104 % of control | dose: 300.0 mg/kg/injection, schedule: Q04DX003 (ip), vehicle: saline 100 % of control

NNC(=O)C1CC2C(=O)NNC(=O)C2C1C(=O)O (stereo not given)
inactive: [6] 102 % of control | [7] 107 % of control | [8] 113 % of control

C1=CCC2CN(CCCN3CCOCC3)CC2C1 (stereo not given)
inactive: dose: 100.0 mg/kg/injection, schedule: Q01DX001 (ip), vehicle: saline with Tween-80 103 % of control | dose: 200.0 mg/kg/injection, schedule: Q01DX001 (ip), vehicle: saline with Tween-80 108 % of control | dose: 400.0 mg/kg/injection, schedule: Q01DX001 (ip), vehicle: saline with Tween-80 105 % of control

S=C1NC2CCCc3ccccc3C2O1 (stereo not given)
inactive: [12] 111 % of control | [13] 113 % of control | [14] 107 % of control

NNc1cccc(C(F)(F)F)c1
inactive: [17] 94 % of control | [19] 100 % of control | [25] 96 % of control | dose: 50.0 mg/kg/injection, schedule: Q04DX003 (ip), vehicle: saline with Tween-80 95 % of control | [21] 95 % of control and 98 % of control

CC(=O)NC(C)C(C)C (stereo not given)
inactive: [15] 94 % of control | [16] 107 % of control | [24] 104 % of control

COC1C=COC2(C)Oc3c(C)c(O)c4c(c3C2=O)/C(=N/C2CCC(O)OC2C)C=C(NC(=O)/C(C)=C\C(=O)C2CC2C(O)C(C)C(O)C(C)C(OC(C)=O)C1C)C4=O (stereo not given)
inactive: dose: 50.0 mg/kg/injection, schedule: Q04DX002 (ip), vehicle: saline with Tween-80 95 % of control | dose: 100.0 mg/kg/injection, schedule: Q04DX002 (ip), vehicle: saline with Tween-80 95 % of control
